Source: US20260083751A1, “ALLOSTERIC MODULATORS OF ANDROGEN RECEPTOR COACTIVATOR RECRUITMENT FOR CRPC THERAPY” (University of Pittsburgh – Of the Commonwealth System of …, priority 2022, published 2026)
Entries after “also recorded” stand apart in the source; their conditions may differ.

Experiments:
[1] = system: PSA secretion in C4-2 conditioned media; assay: Dot blot of PSA secretion by C4-2 cells; type: cell-based; conditions: C4-2 cells, 20 μM 3 h, ±10 nM DHT 24 h
Description: To determine PSA secretion levels, C4-2 cells were seeded at 1.4×10^5 cells/well in 12-well plates and treated as described above for PSA cell expression experiments. […] 500 μL of conditioned media supernatant was added to the wells of 96-well to Bio-blot apparatus (BioRad, Hercules, CA) containing a nitrocellulose membrane and was allowed to pass through and attach to the membrane under gravity for 3-4 h at room temperature. The membrane was washed 1× with 500 μL TBS under vacuum, blocked with 1% BSA in TBST for 1 h, and then incubated overnight at 4° C. with the primary rabbit anti-hPSA antibody (Cell Signaling, Danvers, MA) diluted 1:1000 in TBST plus 1% BSA. Dot blots were washed 3× in 10 mL of TBST for 10 min, then incubated for 1 h with secondary goat anti-rabbit-IgG HRP conjugated antibody (Invitrogen, Carlsbad, CA) diluted 1:10,000 in TBST plus 1% Bovine Serum Albumin (BSA), washed 3× with […] of TBST for 10 min, and then developed with Pierce ECL western blotting substrate. Images of ECL dot blots were acquired on an iBright™ 1500 imaging system and quantified by iBright™ image analysis software (ThermoFisher Scientific, Waltham, MA).

AR-TIF2 PPI = molecular target: T1, AR-TIF2 PPI (Homo sapiens, UniProt P10275); assay: AR-TIF2 PPIB assay, both formats stated jointly; type: cell-based; conditions: for Fold reduction in relative potency in both AR-TIF2 PPIB assay formats: analog versus its parent hit; for IC50: both assay formats, read-out: AR-TIF2 PPI inhibitor/disruptor IC50s
T1 construct: AR-LBD residues (662-919) were incorporated into one biosensor; expressed in transfected cells; host or cells: U-2 OS osteosarcoma cells, coinfected with recombinant adenoviruses
T1 sequence (P10275 662-919): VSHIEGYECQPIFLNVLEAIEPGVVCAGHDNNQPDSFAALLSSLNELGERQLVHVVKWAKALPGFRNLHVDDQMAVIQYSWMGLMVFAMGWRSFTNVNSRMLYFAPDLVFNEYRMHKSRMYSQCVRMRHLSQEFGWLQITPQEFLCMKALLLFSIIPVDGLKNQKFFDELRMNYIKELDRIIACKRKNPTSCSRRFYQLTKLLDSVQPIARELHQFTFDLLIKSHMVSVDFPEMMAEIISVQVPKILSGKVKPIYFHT
Description: AR-TIF2 Protein-Protein Interaction Biosensor Assay: The AR-TIF2 PPIB HCS assay was performed in U-2 OS osteosarcoma cells as described previously (Fancher et al., Assay Drug Dev Technol. 2016, 14:453-477; Fancher et al., Assay Drug Dev Technol. 2018, 16:297-319; Hua et al., Assay Drug Dev Technol. 2014, 12:395-418; Hua et al., Methods Mol Biol. 2018, 1683:211-227). Briefly, U-2 OS cells were coinfected with recombinant adenovirus biosensor expression constructs and seeded at 2,500 cells per well in 384-well collagen-coated microplates (Greiner Bio-One #781956) and plates were incubated overnight at 37° C. in 5% CO2 and 95% humidity. […] After the appropriate time, assay plates were fixed by transfer of 50 μL of pre-warmed (37° C.) 7.4% formaldehyde and 2 μg/mL Hoechst 33342 in PBS and incubation at room temperature for 30 minutes. Liquid was aspirated, plates were washed twice with 85 μL PBS, leaving the final wash in the plate. Plates were sealed with adhesive aluminum plate seals, and fluorescent images of three fields of view were acquired in the DAPI (Hoechst stained nuclei), FITC (TIF2-GFP) and Texas Red (AR-RFP) channels on an ImageXpress® Micro (IXM) automated HCS platform (Molecular Devices LLC, Sunnyvale, CA) using a 10× Plan Fluor 0.3 NA objective. Images were analyzed using the Translocation Enhanced (TE) image analysis module of the MetaXpress® software (Molecular Devices, LLC, San Jose, CA) as described previously (Fancher et al., Assay Drug Dev Technol. 2016, 14:453-477; Fancher et al., Assay Drug Dev Technol. 2018, 16:297-319; Hua et al., Assay Drug Dev Technol. 2014, 12:395-418; Hua et al., Methods Mol Biol. 2018, 1683:211-227).
A positional AR-TFI2 protein-protein interaction biosensor (PPIB) assay was used to identify small molecules that inhibited DHT-induced formation of AR-TIF2 PPIs and/or disrupted pre-existing AR-TIF2 PPIs (Fancher et al., Assay Drug Dev Technol 2016, 14(8):453-477; Fancher et al., Assay Drug Dev Technol 2018, 16(6):297-319; Hua et al., Assay Drug Dev Technol 2014, 12:395-418; Hua et al., Methods Mol biol 2018, 1683:211-227). AR-LBD residues (662-919) were incorporated into one biosensor and TIF2 residues (725-840) containing the 3rd NR box LXXLL motif into the second interacting biosensor partner (Id.) The AR-TIF2 PPIB recapitulates the orthosteric ligand (OSL)-induced translocation of AR from the cytoplasm into the nucleus where PPIs with TIF2 result in colocalization of both biosensors in the nucleolus. Using three libraries, a total of 143,535 compounds were screened—a 10,000-compound ChemDiv PPI focused diversity library, a 50,000-compound ChemBridge diversity library, and a 83,535-compound library provided by the NCI's Chemical Biology Consortium. The 10K and 50K diversity libraries were subsets of 142K and 810K parent libraries, enabling screening of a representative subset of >1×10^6 compounds. AR-TIF2 PPI inhibitor and disruptor actives were confirmed in the HCS assay and counter screens designed to identify and exclude nuisance/interference or non-selective compounds (Fancher et al., Assay Drug Dev Technol 2018, 16(6):297-319). […] An AR-GFP subcellular localization assay was used to exclude compounds that reduced AR expression and/or restricted its localization to the cytoplasm (Fancher et al., Assay Drug Dev Technol 2018, 16(6):297-319; Johnston et al., Assay Drug Dev Technol 2016, 14:226-239; Masodi et al., Mol Cancer Ther 2017, 16(10):2120-2129). Hits were structurally classified, clustered, and medicinal chemistry computational filters (PAINS/REOS) were used to exclude nuisance compounds and evaluate drug-like properties (Baell, J Med Chem 2010, 53(7):2719-2740; Baell, ACS Chem. Biol. 2018, 13:36-44; Johnston, Curr Opin Chem Biol 2011, 15:174-182; Walters, Adv Drug Deliv Rev 2002, 54:255-271). […]

SMILES | Endogenous and DHT-enhanced PSA secretion [1] | Fold reduction in relative potency in both AR-TIF2 PPIB assay formats (AR-TIF2 PPI) [fold] | also measured
Cc1ccccc1-c1cc(O)c2c(c1)CN(c1nc(C(N)=O)cs1)CCO2 [Compound S1-1] | substantially reduced; also recorded: inhibition | – | –
Cc1nc(N)cc(N2CCOc3c(O)cc(-c4ccccc4C)cc3C2)n1 [Compound S1-2] | – | ~2 | –
Cc1ccccc1-c1cc(O)c2c(c1)CN(c1cc(N)ncn1)CCO2 [Compound S1-4] | – | – | IC50 (AR-TIF2 PPI): > 100 µM
COc1cc(-c2ccc(C)s2)cc2c1OCCN(c1nc(C(N)=O)cs1)C2 [Compound S1-5] | – | 4 | –
Cc1nsc(NC(=O)N2CCC(Sc3ccccc3C)CC2)n1 [Compound S2-6] | substantially reduced; also recorded: inhibition | – | –
Cc1nsc(NC(=O)N2CCC(Cn3ccnc3)CC2)n1 [Compound S2-7] | – | – | IC50 (AR-TIF2 PPI): > 100 µM
Cc1c(-c2ccccc2F)[nH]c2ccc(CNC(=O)CCc3cn[nH]c3)cc12 [Compound S3-11] | substantially reduced; also recorded: inhibition | – | –
Cc1c(-c2ccc(F)cc2)[nH]c2ccc(CNC(=O)c3ccc(CO)o3)cc12 [Compound S3-15] | – | ~2 | –
